Results taken from article PMC5114585, “Tomato FK506 Binding Protein 12KD (FKBP12) Mediates the Interaction between Rapamycin and Target of Rapamycin (TOR)” (Frontiers in Plant Science, 2016).

Molecular target: T1, SlFKBP12 (Solanum lycopersicum, UniProt A0A3Q7ERC2)
T1 construct: gene FKBP12
T1 sequence (A0A3Q7ERC2 1-112): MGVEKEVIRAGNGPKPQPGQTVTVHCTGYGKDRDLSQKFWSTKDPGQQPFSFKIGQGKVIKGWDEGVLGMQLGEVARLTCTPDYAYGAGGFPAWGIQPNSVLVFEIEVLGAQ
Assay: protein gel shifting assay: native vs denatured extracts of treated seedlings, anti-HA immunoblot
Details: 0, 1, 5, 10 uM rapamycin for 24 h on seedlings; indirect read-out of ternary FKBP12-rapamycin-TOR complex (host Arabidopsis TOR)

CO[C@H]1C[C@@H]2CC[C@@H](C)[C@@](O)(O2)C(=O)C(=O)N2CCCC[C@H]2C(=O)O[C@H]([C@H](C)C[C@@H]2CC[C@@H](O)[C@H](OC)C2)CC(=O)[C@H](C)/C=C(\C)[C@@H](O)[C@@H](OC)C(=O)[C@H](C)C[C@H](C)/C=C/C=C/C=C/1C [rapamycin]
protein gel shifting assay: native vs denatured extracts of treated seedlings, a: with increasing of rapamycin, SlFKBP12 protein level displayed a decline trend in native stage
